Experimental findings from patent US12024499B2, “Muscarinic agonists” (Heptares Therapeutics Limited, priority 2015, dated 2024) are described below.

Common to all, as to assay type: cell-based
Assay [1] deals with T1, human muscarinic M1 receptor (Homo sapiens, UniProt P11229).
T1 sequence (P11229 1-460): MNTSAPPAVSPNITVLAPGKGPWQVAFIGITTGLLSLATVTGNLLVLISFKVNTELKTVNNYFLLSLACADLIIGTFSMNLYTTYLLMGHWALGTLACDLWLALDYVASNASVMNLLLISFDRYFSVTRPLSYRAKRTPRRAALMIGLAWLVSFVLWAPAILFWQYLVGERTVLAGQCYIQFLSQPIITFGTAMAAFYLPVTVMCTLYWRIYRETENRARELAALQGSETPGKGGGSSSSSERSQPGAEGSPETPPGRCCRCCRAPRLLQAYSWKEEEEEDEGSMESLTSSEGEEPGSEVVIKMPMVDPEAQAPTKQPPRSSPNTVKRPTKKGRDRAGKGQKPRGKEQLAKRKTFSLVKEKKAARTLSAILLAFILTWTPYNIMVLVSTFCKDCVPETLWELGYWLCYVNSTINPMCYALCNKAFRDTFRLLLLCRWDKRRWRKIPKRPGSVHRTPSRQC
In words: Alphascreen Surefire phospho-ERK1/2 assay, M1. Conditions: for EC50: CHO cells stably expressing human M1, agonist 5 min, 37° C., read-out: pEC50 M1 (converted); for Emax: CHO, read-out: % Emax cf. ACh, M1. The procedure: (§1) ERK1/2 phosphorylation is a downstream consequence of both Gq/11 and Gi/o protein coupled receptor activation, making it highly suitable for the assessment of M1, M3 (Gq/11 coupled) and M2, M4 receptors (Gi/o coupled), rather than using different assay formats for different receptor subtypes. CHO cells stably expressing the human muscarinic M1, M2, M3 or M4 receptor were plated (25K/well) onto 96-well tissue culture plates in MEM-alpha+10% dialysed FBS. Once adhered, cells were serum-starved overnight. Agonist stimulation was performed by the addition of 5 μL agonist to the cells for 5 min (37° C.). Media was removed and 50 μL of lysis buffer added. After 15 min, a 4 μL sample was transferred to 384-well plate and 7 μL of detection mixture added. Plates were incubated for 2 h with gentle agitation in the dark and then read on a PHERAstar plate reader.
(§2) pEC50 and Emax figures were calculated from the resulting data for each receptor subtype.

Assay [2] deals with T2, human muscarinic M4 receptor (Homo sapiens, UniProt P08173).
T2 construct: expressed in transfected cells
T2 sequence (P08173 1-479): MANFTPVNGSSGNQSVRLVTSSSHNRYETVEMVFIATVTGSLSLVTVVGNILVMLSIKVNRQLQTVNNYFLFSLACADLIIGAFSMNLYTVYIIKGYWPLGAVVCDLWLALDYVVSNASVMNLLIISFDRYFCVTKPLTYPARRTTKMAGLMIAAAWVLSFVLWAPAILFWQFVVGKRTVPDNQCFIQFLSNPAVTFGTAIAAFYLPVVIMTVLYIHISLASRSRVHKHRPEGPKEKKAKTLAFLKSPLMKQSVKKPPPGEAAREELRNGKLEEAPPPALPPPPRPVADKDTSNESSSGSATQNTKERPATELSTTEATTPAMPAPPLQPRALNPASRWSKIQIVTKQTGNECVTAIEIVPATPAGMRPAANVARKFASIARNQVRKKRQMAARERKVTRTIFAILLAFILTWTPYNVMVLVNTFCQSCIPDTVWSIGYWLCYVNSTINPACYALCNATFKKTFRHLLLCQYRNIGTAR
In words: Alphascreen Surefire phospho-ERK1/2 assay, M4. Conditions: for EC50: CHO cells stably expressing human M4, agonist 5 min, 37° C., read-out: pEC50 M4 (converted); for Emax: CHO, read-out: % Emax cf. ACh, M4. The procedure:
as §1, §2
(In general: Bead proximity is the source of the signal in Alpha formats.)

For assay [3], the target named is T3, human muscarinic M3 receptor (Homo sapiens, UniProt P20309).
T3 construct: expressed in transfected cells
In words: Alphascreen Surefire phospho-ERK1/2 assay, M3. Conditions: for EC50: CHO cells stably expressing human M3, agonist 5 min, 37° C., read-out: pEC50 M3 (converted); for Emax: CHO, read-out: % Emax cf. ACh, M3. The procedure:
as §1, §2

Assay [4] concerns the target T4, human muscarinic M2 receptor (Homo sapiens, UniProt P08172).
T4 sequence (P08172 1-466): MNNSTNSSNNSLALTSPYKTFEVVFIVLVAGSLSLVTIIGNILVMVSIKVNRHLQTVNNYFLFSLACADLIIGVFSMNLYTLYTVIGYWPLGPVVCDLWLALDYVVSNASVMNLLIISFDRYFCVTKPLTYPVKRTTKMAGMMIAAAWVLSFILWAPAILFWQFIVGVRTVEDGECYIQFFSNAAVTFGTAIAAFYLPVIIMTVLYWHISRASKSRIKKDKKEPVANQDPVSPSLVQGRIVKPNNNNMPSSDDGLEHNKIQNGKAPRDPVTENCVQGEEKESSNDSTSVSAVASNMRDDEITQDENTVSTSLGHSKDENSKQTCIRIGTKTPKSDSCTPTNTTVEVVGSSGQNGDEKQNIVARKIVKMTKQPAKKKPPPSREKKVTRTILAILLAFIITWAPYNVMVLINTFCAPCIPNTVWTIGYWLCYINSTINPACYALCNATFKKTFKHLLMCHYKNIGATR
In words: Alphascreen Surefire phospho-ERK1/2 assay, M2. Conditions: for EC50: CHO cells stably expressing human M2, agonist 5 min, 37° C., read-out: pEC50 M2 (converted); for Emax: CHO, read-out: % Emax cf. ACh, M2. The procedure: as §1, §2

T3 sequence (P20309 whole entry): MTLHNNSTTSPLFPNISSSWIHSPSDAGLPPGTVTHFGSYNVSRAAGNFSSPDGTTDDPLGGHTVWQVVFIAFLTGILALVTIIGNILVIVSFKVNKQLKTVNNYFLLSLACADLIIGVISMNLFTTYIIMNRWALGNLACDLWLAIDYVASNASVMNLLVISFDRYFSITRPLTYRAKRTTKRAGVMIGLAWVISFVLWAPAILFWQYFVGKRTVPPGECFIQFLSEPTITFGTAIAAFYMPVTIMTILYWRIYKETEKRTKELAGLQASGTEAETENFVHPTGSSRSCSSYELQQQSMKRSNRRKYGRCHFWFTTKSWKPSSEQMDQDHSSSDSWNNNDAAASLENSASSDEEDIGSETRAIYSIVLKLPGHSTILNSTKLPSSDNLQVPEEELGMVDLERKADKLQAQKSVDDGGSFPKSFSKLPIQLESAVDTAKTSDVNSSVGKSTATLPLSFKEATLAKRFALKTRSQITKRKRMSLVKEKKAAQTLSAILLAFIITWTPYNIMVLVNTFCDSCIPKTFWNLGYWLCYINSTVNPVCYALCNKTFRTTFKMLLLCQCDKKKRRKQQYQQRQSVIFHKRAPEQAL

What is called Emax is the size of the effect at its maximum, as opposed to the concentration needed. For the compound `CCOC(=O)N1CCC2(CC(N3CCC(N4C(=O)C[C@H]4C)CC3)C2)C1` (single isomer, unassigned) [Example 1-6], the EC50 was over 20 µM in assay [1] and 0.251 µM in assay [2]. The Emax is 13% in assay [1] and 74% in assay [2].
`CCOC(=O)N1CCC2(CC(N3CCC(N4CC[C@@H]4C(=O)OC)CC3)C2)C1` (single isomer, unassigned) [Example 1-2]: the EC50 was over 20 µM in assay [3], over 20 µM in assay [1], over 20 µM in assay [4] and 0.0631 µM in assay [2]. The Emax in assay [3] turned out to be 7%; in assay [1] it was 37%; in assay [4], 7%; in assay [2], 67%.
For `CCOC(=O)N1CCC2(CC(N3CCC(N4C(=O)C[C@@H]4C)CC3)C2)C1` (single isomer, unassigned) [Example 1-4], the EC50 in assay [1] was over 20 µM; in assay [2], 0.158 µM. The Emax in assay [1] amounted to 18%; in assay [2], 41%.
For `CCOC(=O)N1CCC2(CC(N3CCC(N4CCC4=O)CC3)C2)C1` (single isomer, unassigned) [Example 1-3, Ethyl 2-[4-(2-oxoazetidin-1-yl)piperidin-1-yl]-6-azaspiro[3.4]octane-6-carboxylate], in that order: over 20 µM, 0.2 µM, 20% and 23%.
With `CCOC(=O)N1CCC2(CC(N3CCC(N4C(=O)C[C@H]4CC)CC3)C2)C1` (single isomer, unassigned) [Example 1-7], the EC50 in assay [3] is over 20 µM; in assay [1] it was 0.794 µM; in assay [4], 0.501 µM; in assay [2] it was 0.0794 µM. Moreover, the Emax worked out at 21% in assay [3], 94% in assay [1], 26% in assay [4] and 101% in assay [2].
Take `CCOC(=O)N1CCC2(CC(N3CCC(N4CC(F)(F)C4)CC3)C2)C1` (single isomer, unassigned) [Example 1-1, Ethyl 2-[4-(3,3-difluoroazetidin-1-yl)piperidin-1-yl]-6-azaspiro[3.4]octane-6-carboxylate]: in assay [1], the EC50 is 1 µM and the Emax came out at 24%. Also, in assay [2], the EC50 is 0.158 µM and the maximal response (Emax) is 26%.
For `CCOC(=O)N1CCC2(CC(N3CCC(N4C(=O)C[C@@H]4CC)CC3)C2)C1` (single isomer, unassigned) [Example 1-5], the EC50 in assay [3] is over 20 µM; in assay [1], 0.316 µM; in assay [4] it was over 20 µM; in assay [2], 0.1 µM. Also, the Emax stood at 0% in assay [3], 69% in assay [1], 37% in assay [4] and 56% in assay [2].
